This is an account of results in PMC4143179 (Journal of Natural Products, 2014).

One data set relates to MDCK-MDR1 cells. Particulars: transport with versus without verapamil.
Data set [1] concerns MCF7 breast cancer cell line. The data set can be described thus: Antiproliferation assay. In kind it is cell-based.
For data set [2] the following is noted: intravenous or inhaled administration; cited from earlier work.
A further data set deals with P-glycoprotein (P-gp). Particulars: cited from earlier work.

In the case of `COC(=O)[C@@H]1C[C@H](OC(C)=O)C(=O)[C@H]2[C@@]1(C)CC[C@H]1C(=O)O[C@H](CC3=CC(=O)C(OC)=CC3=O)C[C@]21C` [Compound 15, (2S,4aR,6aR,7R,9S,10aS,10bR)-Methyl 9-Acetoxy-2-[(4-methoxy-3,6-dioxocyclohexa-1,4-dien-1-yl)methyl]-6a,10b-dimethyl-4,10-dioxododecahydro-1H-benzo[f]isochromene-7-carboxylate], the “efflux by P-gp (in words)” value in the data set on MDCK-MDR1 cells is “actively effluxed by P-gp”.
Same read-out and setting: the same measure for `COC(=O)[C@@H]1C[C@H](OC(C)=O)C(=O)[C@H]2[C@@]1(C)CC[C@H]1C(=O)O[C@H](CC3=CC(=O)C(OC)=C(OC)C3=O)C[C@]21C` [Compound 14, (2S,4aR,6aR,7R,9S,10aS,10bR)-Methyl 9-Acetoxy-2-[(4,5-dimethoxy-3,6-dioxocyclohexa-1,4-dien-1-yl)methyl]-6a,10b-dimethyl-4,10-dioxododecahydro-1H-benzo[f]isochromene-7-carboxylate]: “actively effluxed by P-gp”.
On the same count and under the same terms, the entry for `COc1cc2nc(N3CCN(C(=O)c4ccco4)CC3)nc(N)c2cc1OC` [prazosin] is “actively effluxed by P-gp”.
For the compound `COC(=O)[C@@H]1C[C@H](OC(C)=O)C(=O)[C@H]2[C@@]1(C)CC[C@H]1C(=O)O[C@H](c3ccoc3)C[C@]21C` [Salvinorin A, salvinorin A], in data set [1], the “antiproliferative effects (in words)” value is “did not show any detectable antiproliferative effects”. For the same compound, the “time to cross the blood–brain barrier” value in data set [2] is on record as not above 1 min. The “P-glycoprotein substrate (in words)” value with P-glycoprotein (P-gp) is “substrate for P-glycoprotein”. Further, the “efflux by P-gp (in words)” value in the data set with MDCK-MDR1 cells was “actively effluxed by P-gp”.
As for `Cn1c(=O)c2c(ncn2C)n(C)c1=O` [caffeine], the “efflux by P-gp (in words)” value with MDCK-MDR1 cells is reported as “limited efflux by P-gp”.
